Where a SMILES comes first, the peptide text is derived from it. The star is where a group is joined. Cbz = O=C(OCc1ccccc1)*; CH2F = FC*
Key:
HCT116p53^+/+ cells = assay: MTT cell viability assay in HCT116 p53 wild-type cells; format: cell-based, human; conditions: for interaction with CH-11 in MTT assay: range of drug concentrations 24 hours, then CH-11 200 ng/ml for 48 hours
Experimental: (§5) Cell Viability Assays. Cell viability was assessed by MTT (3-(4,5-dimethylthiazol-2-yl)-2,5-diphenyltetrazolium bromide, Sigma) assay (12). […] MTT (0.5 mg/ml) was then added to each well and the cells incubated at 37° C. for a further 3 hours. The culture medium was removed and formazan crystals reabsorbed in 200 μL DMSO. Cell viability was determined by reading the absorbance of each well at 570 nm using a 96-well microplate reader (Molecular Devices, Wokingham, England). […] Twenty microlitres (20 μL) MTT (5 mg/ml) was then added to each well and the cells incubated at 37° C. for a further 3 hours. The culture medium was removed and formazan crystals reabsorbed in 200 μL DMSO. Cell viability was determined by reading the absorbance of each well at 570 nm using an ELISA plate reader (Molecular Devices).
(§6) Statistical Analyses. The nature of the interaction between the chemotherapeutic drugs and CH-11 was determined by calculating the R index (RI), which was initially described by Kern and later modified by Romaneli (13, 14). […] Synergism is then defined as an RI of greater than unity. […] To further assess the statistical significance of the interactions, the inventors designed a univariate ANOVA analysis using the SPSS software package. This was an additive model based on the null hypothesis that there was no interaction between the drugs.

H630 cells = assay: MTT cell viability assay in p53 mutant H630 cells; format: cell-based; conditions: drug 24 hours, then CH-11 for 48 hours (Example 11)
Experimental: as §5, §6

HCT116 p53 null cells = assay: Propidium iodide flow cytometry, HCT116 p53 null; format: cell-based, human; conditions: drug 24 hours followed by CH-11 50 ng/ml 24 hours
Experimental: (§1) Cells were seeded at 1×10^5 per well of a 6-well tissue culture plate. […] DNA content of harvested cells was evaluated after propidium iodide staining of cells using the EPICS XL Flow Cytometer (Coulter, Miami, Fla.). […] Cells were seeded at 1×10^5 per well of a 6-well tissue culture plate. […] DNA content of harvested cells was evaluated after propidium iodide staining of cells using the EPICS XL Flow Cytometer (Coulter). A FITC-conjugated monoclonal anti-human Fas antibody (DAKO) was used to determine cell surface expression of the receptor. Cells were collected and washed twice in PBS before incubating in the antibody (1/20 dilution) at 4° C. for 30 mins. A non-reactive FITC-conjugated mouse IgG1 antibody was used as a negative control for each sample. Following incubation the cells were washed twice with PBS containing 2% bovine serum albumin and fixed in 0.3 mL 4% paraformaldehyde. Samples were then analysed on the EPICS XL Flow Cytometer (Coulter).

Fas [1] = assay: Western blot of Fas expression in HCT116 p53 wild-type cells; format: cell-based, human; conditions: for induction of Fas/CD95 protein: 5-FU 5 μM, CPT-11 5 μM, Oxaliplatin 1 μM for 48 hours; for Fas expression: RTX after 72 hours, MTA data not shown
Experimental: (§2) Western Blotting. Western blots were performed as previously described (6). The Fas/CD95, Bc1-2 and BID (Santa Cruz Biotechnology, Santa Cruz, Calif.), caspase 8 (Oncogene Research Products, Darmstadt, Germany), p53 (Santa Cruz Biotechnology), and PARP (Pharmingen, BD Biosciences, Oxford, England) mouse monoclonal antibodies were used in conjunction with a horseradish peroxidase (HRP)-conjugated sheep anti-mouse secondary antibody (Amersham, Little Chalfont, Buckinghamshire, England). FasL rabbit polyclonal antibody (Santa Cruz Biotechnology) was used in conjunction with an HRP-conjugated donkey anti-rabbit secondary antibody (Amersham). TS sheep monoclonal primary antibody (Rockland, Gilbertsville, Pa.) was used in conjunction with an HRP-conjugated donkey anti-sheep secondary antibody (Serotech, Oxford, England). Equal loading was assessed using a β-tubulin mouse monoclonal primary antibody (Sigma).

Fas [2] = assay: Western blot of Fas expression in HCT116 p53 null cells; format: cell-based, human; conditions: CPT-11 5 μM, 48 hours
Experimental: as §2

procaspase 8, PARP [3] = assay: Western blot of procaspase 8 and PARP in HCT116 p53 null cells; format: cell-based, human; conditions: IC60 dose 24 hours followed by CH-11 200 ng/ml 24 hours
Experimental: as §2

Fas/CD95 mRNA [4] = assay: Real-time PCR of Fas/CD95 mRNA in HCT116 p53 wild-type cells; format: cell-based, human; conditions: IC60 72hrs doses
Experimental: (§3) Real-time PCR was performed using a DNA Engine Opticon 2 (MJ Research Incorporated). TheDyNAmo SYBR Green qPCR kit (Finnzymes) was used as the fluoresent dye specific for double-stranded DNA. PCR conditions consisted of an initial denaturation step of 95° C. for 10 minutes, followed by 39 cycles of 94° C. for 10 secs, 55° C. for 20 secs and 72° C. for 20 secs, with a final extension of 72° C. for 10 minutes. A melting curve was included at the end of each run to check the specificity of the amplified product. Experiments were performed in triplicate to ensure reproducibility of the technique. On completion of the run the PCR products were run put on a 2% ethidium bromide agarose gel to confirm that their size matched that of the expected amplicon. Primer sequences were as follows: Fas (Forward) […], Fas (Reverse) […], 18S (Forward) […], 18S (Reverse) […].

Fas/CD95 mRNA [5] = assay: Real-time PCR of Fas/CD95 mRNA in HCT116 p53 null cells; format: cell-based, human; conditions: IC60 72hrs doses, 24 and 48 hours
Experimental: as §3

Fas/CD95 receptor [6] = assay: Flow cytometry of Fas/CD95 cell surface expression, HCT116 p53 null; format: cell-based, human; conditions: 24 hours
Experimental: as §1

Fas receptor = assay: Fas/CD95 cell surface expression in p53 mutant H630 cell line (Example 11); format: cell-based; conditions: 48 hours; 5-FU 5 μM, CPT-11 5 μM, Oxaliplatin 1 μM
Experimental: (§4) Where flow cytometric analysis was employed in Examples 1 to 5, the following protocol was used. Cells were seeded at 1×10^5 per well of a 6-well tissue culture plate. […] DNA content of harvested cells was evaluated after propidium iodide staining of cells using the EPICS XL Flow Cytometer (Coulter, Miami, Fla.). Where flow cytometric analysis was employed in Examples 6 to 12, the following protocol was used. Cells were seeded at 1×10^5 per well of a 6-well tissue culture plate. […] DNA content of harvested cells was evaluated after propidium iodide staining of cells using the EPICS XL Flow Cytometer (Coulter). A FITC-conjugated monoclonal anti-human Fas antibody (DAKO) was used to determine cell surface expression of the receptor. Cells were collected and washed twice in PBS before incubating in the antibody (1/20 dilution) at 4° C. for 30 mins. A non-reactive FITC-conjugated mouse IgG1 antibody was used as a negative control for each sample. Following incubation the cells were washed twice with PBS containing 2% bovine serum albumin and fixed in 0.3 mL 4% paraformaldehyde. Samples were then analysed on the EPICS XL Flow Cytometer (Coulter).

procaspase 8, BID, PARP = assay: Western blot of procaspase 8, BID and PARP in MCF-7 cells; format: cell-based
Experimental: as §2

MCF-7 cells [7] = assay: MTT cell viability assay in MCF-7 cells; format: cell-based
Experimental: as §5, §6

RKO cells = assay: MTT cell viability assay in RKO cells; format: cell-based; conditions: data not shown
M7TS90-E6 cells = assay: Flow cytometry sub-G1/G0 apoptotic fraction, M7TS90-E6; format: cell-based; conditions: 96 hours after drug treatment; RTX 100 nM, MTA 1 μM, 5-FU 10 μM
Experimental: as §4

Fas [8] = assay: Western blot of Fas expression in MCF-7 cells; format: cell-based
Experimental: as §2

Fas [9] = assay: Western blot of Fas expression in RKO cells; format: cell-based; conditions: 48 hours post-treatment; MTA data not shown
Experimental: as §2

Fas [10] = assay: Western blot of Fas expression in M7TS90 cells; format: cell-based; conditions: 10 μM 5-FU, 100 nM RTX or 1 μM MTA for 72 hours
Experimental: as §2

Fas [11] = assay: Western blot of Fas expression in M7TS90-E6 cells; format: cell-based; conditions: 10 μM 5-FU, 100 nM RTX or 1 μM MTA
Experimental: as §2

procaspase 8, PARP [12] = assay: Western blot of procaspase 8 and PARP in M7TS90-E6 cells; format: cell-based; conditions: p53 null; 5-FU 10 μM, RTX 100 nM, MTA 1 μM, CH-11 250 ng/ml; drugs alone data not shown
Experimental: as §2

HCT116p53^−/− cells = assay: MTT cell viability assay in HCT116 p53 null cells; format: cell-based, human; conditions: range of drug concentrations 24 hours, then CH-11 200 ng/ml for 48 hours
Experimental: as §5, §6

Fas/CD95 receptor [13] = assay: Flow cytometry of Fas/CD95 cell surface expression, HCT116 p53 wild-type; format: cell-based, human; conditions: 24 hours
Experimental: as §4

MCF-7 cells [14] = assay: Flow cytometry of propidium iodide stained cells, sub-G1/G0 apoptotic fraction, MCF-7; format: cell-based; conditions: 25 nM RTX 72 hours, 250 ng/ml CH-11 24 hours; untreated control ~11%
Experimental: as §4

Fas [15] = assay: Western blot of Fas expression in H630 cells; format: cell-based; conditions: range of concentrations, 48 hours
Experimental: as §2

FasL = assay: Western blot of FasL expression in MCF-7 cells; format: cell-based; conditions: IC60 doses, 72 hours
Experimental: as §2

Structure (SMILES) | interaction with CH-11 in MTT assay (HCT116p53^+/+ cells) | interaction with CH-11 by propidium iodide staining (HCT116 p53 null cells) | induction of Fas/CD95 protein (Fas [1]) | maximum induction of Fas mRNA (Fas/CD95 mRNA [5]) | induction of Fas/CD95 receptor cell surface expression (Fas/CD95 receptor [6]) | induction of the Fas receptor (Fas receptor) | induction of apoptosis by drug alone (M7TS90-E6 cells) | Fas expression (Fas [1]) | Fas expression (Fas [9]) | effect of TS induction on drug-mediated up-regulation of Fas (Fas [10]) | Fas up-regulation (Fas [11]) | PARP cleavage / processing (procaspase 8, PARP [12]) | also measured
CCc1c2c(nc3ccc(OC(=O)N4CCC(N5CCCCC5)CC4)cc13)-c1cc3c(c(=O)n1C2)COC(=O)[C@]3(O)CC [CPT-11, Irinotecan] | significant synergy | significant synergy | significant induction | 1.9 fold | induction of the Fas/CD95 receptor | Induction of the Fas receptor |  |  |  |  |  |  | interaction with CH-11 in MTT assay (H630 cells): significant synergy; induction of Fas/CD95 protein (Fas [2]): induction of Fas/CD95 protein; PARP cleavage and procaspase 8 activation following the addition of CH-11 (procaspase 8, PARP [3]): PARP cleavage and procaspase 8 activation; fold induction of Fas mRNA (Fas/CD95 mRNA [4]; 24 hours): 7.0 fold; fold induction of Fas mRNA (Fas/CD95 mRNA [4]; 48 hours): 2.5 fold
CC[C@H](C)[C@H](NC(=O)OCc1ccccc1)C(=O)N[C@@H](CCC(=O)OC)C(=O)N[C@H](C(=O)N[C@@H](CC(=O)OC)C(=O)CF)[C@@H](C)O [IETD-fmk] (Cbz-IE(OMe)TD(OMe)-CH2F) |  |  |  |  |  |  |  |  |  |  |  |  | effect on PARP cleavage in 5-FU/CH-11 co-treated cells (procaspase 8, BID, PARP; 10 μM IETD-fmk, 24 hours): inhibited PARP cleavage; effect on processing of procaspase 8 in cells co-treated with 5-FU and CH-11 (procaspase 8, BID, PARP; 10 μM IETD-fmk, 24 hours): blocked processing of procaspase 8
Nc1nc2[nH]cc(CCc3ccc(C(=O)N[C@@H](CCC(=O)O)C(=O)O)cc3)c2c(=O)[nH]1 [MTA, pemetrexed] |  |  |  |  |  |  | ~6 fold | up-regulated | up-regulated | abrogated | did not result in Fas up-regulation | processed | interaction with CH-11 to decrease cell viability (MCF-7 cells [7]; data not shown): synergistically interacted; interaction with CH-11 to decrease cell viability (HCT116p53^+/+ cells; data not shown): synergistically interacted; interaction with CH-11 to decrease cell viability (RKO cells): synergistically interacted; Fas expression (Fas [8]; MTA data not shown, CH-11 alone 250 ng/ml, 5-FU alone 5 μM): up-regulated
O=C1[O][Pt]2([NH][C@@H]3CCCC[C@H]3[NH]2)[O]C1=O [Oxaliplatin] | significant synergy |  | significant induction | no induction |  | Neither 5-FU nor Oxaliplatin treatment for 48 hours caused significant upregulation |  |  |  |  |  |  | interaction with CH-11 in MTT assay (HCT116p53^−/− cells): no synergistic interaction; induction of Fas/CD95 receptor cell surface expression (Fas/CD95 receptor [13]): significantly induce expression
Cc1nc2ccc(CN(C)c3ccc(C(=O)N[C@@H](CCC(=O)O)C(=O)O)s3)cc2c(=O)[nH]1 [RTX, ralitrexed] | significant synergy | to a lesser extent |  |  | induction of the Fas/CD95 receptor |  | ~8 fold | dramatically increased | dramatic Fas up-regulation | abrogated | did not result in Fas up-regulation | processed | IC60 dose (MCF-7 cells [7]; MCF-7): 25 nM; cells in the sub-G1/G0 apoptotic phase (MCF-7 cells [14]): ~16%; Fas protein up-regulation (Fas [8]; 72 hours, IC60 dose (5 μM 5-FU, 25 nM RTX)): ~7 fold; Fas expression (Fas [15]): not significantly altered; FasL expression (FasL): unaffected; activation of caspase 8 and BID (processing of procaspase 8 and full-length BID), words (procaspase 8, BID, PARP; 5 μM 5-FU or 25 nM RTX 72 hours, CH-11 250 ng/ml 24 hours): neither caspase 8, nor its substrate BID were activated; induction of Fas mRNA expression (Fas/CD95 mRNA [4]; 24 and 48 hours): significant induction

— US20070286867A1, “Combination Therapy” (Fusion Antibodies Limited, priority 2003, published 2007)
